These results are taken from patent US5521315A, “Olefin substituted long chain compounds” (priority 1993, dated 1996).

pIC50: −log10 of the molar value. Bounds are passed on as bounds.

One data set has as its system mast cell degranulation. Nature of the data set: Serotonin release assay (inhibition of mast cell degranulation). The class given is cell-based. The note with it: 50 μM; for RELEASE-SPONT / AVERAGE % RELEASE / inhibition at 50 µM: Table 4; for RELEASE-SPONT: average corrected for spontaneous release; for AVERAGE % RELEASE: average of duplicates; for inhibition at 50 µM: Mast cell; for % INHIBITION (serotonin release): Table 3. From the text:
A serotonin release assay is utilized to study the utility of the inventive compounds for treatment of asthma and allergy. […] This assay measures mast cell degranulation, which is an early phase reaction to allergen challenge. Mast cells grown in tissue culture are first loaded with ^3 H serotonin, which is incorporated into the granules in the cells. The mast cells are sensitized with antigen specific monoclonal IgE, and then triggered to degranulate with the specific antigen (dinitorphenolbound to BSA (DNP)). When the cells degranulate, ^3 H Serotonin is released into the medium, and can be measured directly. The ability of the inventive compounds to inhibit the degranulation response is determined by the decrease in ^3 H Serotonin released in the presence of drug and is represented as % INHIBITION.
Specifically, the serotonin release assay seeds 2×10^5 cells in 0.5 ml medium in duplicate for spontaneous release, IgE+DNP, IgE+DNP+EtOH (vehicle control), and inventive compounds. […] The cells are incubated for 18 hours at 37° C. in 5% CO2, washed twice with 0.5 ml Isotonic Buffer (25 mM disodium PIPES pH 7.1,100 mM NaCl, 5 mM KCl, 5 mM glucose, 0.4 mM MgCl2, 1mM CaCl2, 0.1% BSA), and sterile filtered. 250 μl Isotonic Buffer is added per well and the plates are equilibrated in an incubator for about 10 min. Drug is added and cells are activated with 40 ng/ml DNP-BSA (1 mg/ml Diluted 1:200 in Isotonic Buffer) for 45 minutes using 2 μl/250 μl. Spontaneous release is determined in incubated cells with 250 μl Isotonic Buffer for 45 minutes and the reaction is stopped by removing supernatant and centrifuging at ~4000 rpm in microfuge for 15 seconds to remove any detached cells. Released radiolableled serotonin is counted. To determine amount of ^3 H-serotonin incorporated into the cells, (a) remove Isotonic Buffer and lyse cells by adding 250 μl 1% Triton-X100 in PBS, (b) add to 5 ml scintillation fluid, (c) wash 2× with Triton/PBS, and (d) add washes to scintillation tube. Percent serotonin release is calculated by dividing the amount of released serotonin by the sum of incorporated plus released serotonin and correcting for spontaneous released serotonin. Compound inhibition is calculated by dividing the percent serotonin release in the presence of a compound by the percent serotonin release in the absence of the compound.
This assay is described above and provides an in vitro model for an allergy and asthma therapeutic product.

For data set [1], the system named is CMV promoter activity in transformed (adenovirus) cells. The experiment in a line: CMV promoter assay (gene transcription and translation; cytotoxicity in transformed cells). The class given is cell-based. The settings on record: for cytotoxicity ranking in CMV promoter assay: Table 2 / FIG. 18. From the text: FIG. 18 illustrates data regarding proliferative activity of various inventive compounds for inducting CMV promoter activity. The CMV promoter assay measures gene transcription and translation activity wherein any active compounds will have cytotoxic activity to inhibit cellular protein synthesis machinery in transformed (adenovirus) cells.
This example illustrates data regarding proliferative activity of various inventive compounds for inducting CMV promoter activity. The CMV promoter assay measures gene transcription and translation activity wherein any active compounds will have cytotoxic activity to inhibit cellular protein synthesis machinery in transformed (adenovirus) cells.

In general, inhibition refers to the drop in the measured response relative to a control, in per cent. A word on the pIC50: it is −log10 of the IC50, conventionally taken in molar units. High values mean a small IC50, low ones a large IC50. As to `C=CCCn1c(=O)c2c(ncn2C)n(C)c1=O` [CT2503, 1-(3-butenyl)-3,7-dimethylxanthine], in the data set with mast cell degranulation, the RELEASE-SPONT is listed as 4.87%, the “AVERAGE % RELEASE” value stood at 21.43% and the inhibition at 50 µM turned out to be 39.2%. The pIC50 in data set [1] was below 3.30.

Take `CC(C)=CCC[C@@H](C)CCn1c(=O)c2c(ncn2C)n(C)c1=O` [CT1596R, 1-(3-(R)-methyl-7-methyloct-6-enyl)-3,7-dimethylxanthine]: in the data set on mast cell degranulation, the RELEASE-SPONT stood at 6.59%, the “AVERAGE % RELEASE” value is recorded as 23.14% and the inhibition at 50 µM worked out at 17.9%. Also, the negative logarithm of the IC50 (pIC50) in data set [1] was below 3.30.

For `C=CCCCCCCCCCn1c(=O)ccn(C)c1=O` [CT1823, 3-(10-undecenyl)1-methyluracil], in the data set with mast cell degranulation, the RELEASE-SPONT came to 4.72%, the “AVERAGE % RELEASE” value came to 21.28% and the inhibition at 50 µM came out at 41.1%.

With `C=CCn1c(=O)c2c(ncn2C)n(C)c1=O` [CT1531, 1-(2-propenyl)-3,7-dimethylxanthine], in the data set on mast cell degranulation, the RELEASE-SPONT came to 6.99%, the “AVERAGE % RELEASE” value was found to be 23.55% and the inhibition at 50 µM was 12.8%. The negative-log IC50 (pIC50) in data set [1] is 4.30.

For `CC(C)=CCC/C(C)=C/Cn1c(=O)c2c(ncn2C)n(C)c1=O` [CT2545, 1-(Geranyl)-3,7-dimethylxanthine], in the data set on mast cell degranulation, the RELEASE-SPONT was determined as 2.49%, the “AVERAGE % RELEASE” value came out at 19.05% and the inhibition at 50 µM amounted to 68.9%. The same molecule had a pIC50 in data set [1] of 4.12.

Regarding `C=CCCCCCCCN1C(=O)c2ccccc2C1=O` [CT1102, N(8-nonenyl)phthalimide], in the data set with mast cell degranulation, the RELEASE-SPONT was 2.32%, the “AVERAGE % RELEASE” value was 18.88% and the inhibition at 50 µM was determined as 71.1%. In data set [1], this molecule showed a pIC50 of 3.76.

In the case of `C=CCCCCCCCn1c(=O)c2c(ncn2C)n(C)c1=O` [CT1550, 1-(8-nonenyl)-3,7-dimethylxanthine], in the data set with mast cell degranulation, the RELEASE-SPONT is listed as 6.94%, the “AVERAGE % RELEASE” value was 23.50% and the inhibition at 50 µM amounted to 13.4%. Moreover, the pIC50 in data set [1] is 4.12.

As for `C=CC(O)CCCCCn1c(=O)c2c(ncn2C)n(C)c1=O` (stereo not drawn) [CT2508, 1-(6-hydroxy-7-octenyl)-3,7-dimethylxanthine], in the data set with mast cell degranulation, the RELEASE-SPONT amounted to 2.89%, the “AVERAGE % RELEASE” value worked out at 19.44% and the inhibition at 50 µM was 64%. Besides, the pIC50 in data set [1] is below 3.30.

Regarding `C=CCCCCCCCCCN1C(=O)CCN(C)C1=O` [CT1819, 3-(10-undecenyl)-1-methyldihydrouracil], in the data set on mast cell degranulation, the “activity in serotonin release assay” value is listed as “just not having much of an effect at 50 μM”, the “% INHIBITION (serotonin release)” value was “no inhibi-”, the RELEASE-SPONT is recorded as 9.42% and the “AVERAGE % RELEASE” value is given as 25.98%. The inhibition at 50 µM in the data set with mast cell degranulation was -17.5%.

For the molecule `C=CCCCCn1c(=O)c2[nH]cnc2n(C)c1=O` [CT1438, 1-(5-hexenyl)-3-methylxanthine], the negative logarithm of the IC50 (pIC50) in data set [1] is below 3.30.

For `CCCCCCCCC=CCCCCCCCCn1c(=O)c2c(ncn2C)n(C)c1=O` [CT2539, 1-(9-octadecenyl)-3,7-dimethylxanthine], in the data set on mast cell degranulation, the RELEASE-SPONT amounted to 3.13%, the “AVERAGE % RELEASE” value is recorded as 19.69% and the inhibition at 50 µM turned out to be 61%. The negative-log IC50 (pIC50) in data set [1] is below 4.00.

Consider `C=CCCCCn1c(=O)n(C)c(=O)c2ccccc21` [CT1203, 1-(5-hexenyl)-3-methylbenzoyleneurea], for which, in the data set on mast cell degranulation, the “activity in serotonin release assay” value is “appear to be quite potent”, the RELEASE-SPONT is -1.12%, the “AVERAGE % RELEASE” value is listed as 15.43% and the inhibition at 50 µM was found to be 114%.

`CC(C)=CCCC(C)=CCCC(C)=CCn1c(=O)c2c(ncn2C)n(C)c1=O` [CT2544, 1-(Farnesyl)-3,7-dimethylxanthine]: in the data set with mast cell degranulation, the RELEASE-SPONT is -1.11%, the “AVERAGE % RELEASE” value was 15.44% and the inhibition at 50 µM was found to be 114%. Moreover, in data set [1], the pIC50 was 4.70 and the “cytotoxicity ranking in CMV promoter assay” value is “the most cytotoxic compound tested”.

Turning to `C/C=C/CCCn1c(=O)c2c(ncn2C)n(C)c1=O` [CT1581, 1-(trans-4-Hexenyl)-3,7-dimethylxanthine], in the data set with mast cell degranulation, the RELEASE-SPONT is listed as 4.31%, the “AVERAGE % RELEASE” value was 20.87% and the inhibition at 50 µM amounted to 46.3%. The same molecule showed a pIC50 in data set [1] below 3.30.

With `CC(C)=CCC[C@H](C)CCn1c(=O)c2c(ncn2C)n(C)c1=O` [CT1596S, 1-(3-(S)-methyl-7-methyloct-6-enyl)-3,7-dimethylxanthine], in the data set on mast cell degranulation, the RELEASE-SPONT amounted to 3.15%, the “AVERAGE % RELEASE” value was 19.71% and the inhibition at 50 µM was 60.7%. Also, in data set [1], the pIC50 was 4.40 and the “cytotoxicity ranking in CMV promoter assay” value was “the most cytotoxic compound tested”.

As for `C=CCCCCN1C(=O)CCN(C)C1=O` [CT1812, 3-(5-hexenyl)-1-methyldihydrouracil], in the data set on mast cell degranulation, the “activity in serotonin release assay” value is reported as “just not having much of an effect at 50 μM”, the “% INHIBITION (serotonin release)” value is given as “no inhibi-”, the RELEASE-SPONT was determined as 8.27% and the “AVERAGE % RELEASE” value is recorded as 24.83%. Further, the inhibition at 50 µM in the data set on mast cell degranulation was -3.14%. Also, in data set [1], the negative-log IC50 (pIC50) was below 4.00.

With `C=CCCCCn1c(=O)c(C)cn(C)c1=O` [CT1905, 3-(5-hexenyl)-1-methylthymine], in the data set with mast cell degranulation, the RELEASE-SPONT came to 4.94%, the “AVERAGE % RELEASE” value was found to be 21.49% and the inhibition at 50 µM stood at 38.5%. In addition, the pIC50 in data set [1] was below 3.30.

Regarding `CC/C=C\CCCCCN1C(=O)CCCC1=O` [CT1607, N-(6-cis-nonenyl)glutarimide], in the data set with mast cell degranulation, the “activity in serotonin release assay” value is given as “appears to decrease the activity”, the RELEASE-SPONT was 3.82%, the “AVERAGE % RELEASE” value is 20.38% and the inhibition at 50 µM was 52.3%.

Regarding `C=CCCCCCCCn1c(=O)c(C)cn(C)c1=O` [CT1917, 3-(8-nonenyl)-1-methylthymine], in the data set on mast cell degranulation, the RELEASE-SPONT was found to be 3.75%, the “AVERAGE % RELEASE” value came out at 20.31% and the inhibition at 50 µM came to 53.2%. This molecule also had a pIC50 in data set [1] of 4.12.

In the case of `C=CCCCCCCCCCCn1c(=O)c2c(ncn2C)n(C)c1=O` [CT2516, 1-(11-dodecenyl)-3,7-dimethylxanthine], in the data set with mast cell degranulation, the RELEASE-SPONT was found to be 5.57%, the “AVERAGE % RELEASE” value was 22.12% and the inhibition at 50 µM was 30.6%.

On to `C=CCCCCCCCCCn1c(=O)c(C)cn(C)c1=O` [CT1931, 3-(10-undecenyl)-1-methylthymine], for which, in the data set on mast cell degranulation, the RELEASE-SPONT was 2.23%, the “AVERAGE % RELEASE” value was 18.78% and the inhibition at 50 µM amounted to 72.2%.

Take `CC/C=C\CCCCCCn1c(=O)c2c(ncn2C)n(C)c1=O` [CT2560, 1-(7-cis-decenyl)-3,7-dimethylxanthine]: in the data set with mast cell degranulation, the “activity in serotonin release assay” value is “appears to increase the activity”, the RELEASE-SPONT is listed as 2.96%, the “AVERAGE % RELEASE” value is 19.51% and the inhibition at 50 µM amounted to 63.1%.

Regarding `C=CCCCCCCCCCN1C(=O)CCCC1=O` [CT1610, N-(10-undecenyl)glutarimide], in the data set with mast cell degranulation, the RELEASE-SPONT was found to be 2.27%, the “AVERAGE % RELEASE” value worked out at 18.83% and the inhibition at 50 µM is 71.7%.

With `C=CCCCCCCCCCCCn1c(=O)c2c(ncn2C)n(C)c1=O` [CT2555, 1-(12-tridecenyl)-3,7-dimethylxanthine], in the data set on mast cell degranulation, the RELEASE-SPONT turned out to be 5.72%, the “AVERAGE % RELEASE” value came to 21.68% and the inhibition at 50 µM was 36.1%.
